Measured values published in article PMC13126677 (Journal of Medicinal Chemistry, 2026).
Values after ≈ are worked out from the molar mass of the structure shown.

What was measured:
[1] = test system: procoagulant venom activity (E. romani and B. jararaca); conditions: in words; coagulation assay
Description: (§1) This assay consists of preincubating venom (or venom vehicle control) at a species-specific dose with the compound of interest (or compound vehicle control), then adding citrated bovine plasma to the wells and activating the clotting cascade with calcium chloride. […] Compounds of interest were stamped onto 384-well plates at a volume of 0.5 μL and a concentration of 10 mM in 100% DMSO. Positive and negative control wells were stamped with 0.5 μL of 100% DMSO. To the test wells and the venom-only positive control wells, 10 μL of venom diluted to 1 μg/mL (E. romani) or 10 μg/mL (B. jararaca) in PBS was added, giving a final well amount of 10 ng (E. romani) or 100 ng (B. jararaca) per well. In the no venom negative control wells, 10 μL of PBS was added. The plates were then sealed, span briefly in a Platefuge and incubated at 37 °C for 25 min to allow venom-inhibitor interaction. While the plates were incubating, sufficient citrated bovine plasma (S0260, BioWest) to allow 20 μL/well was centrifuged at 3120 RCF for 5 min to remove any residual cellular debris and the supernatant was collected. The 384-well plates were removed from the incubator for 5 min to allow acclimation to room temperature, then 20 μL/well of 20 mM CaCl2 was added and immediately followed by the addition of 20 μL/well of centrifuged citrated bovine plasma, both via a Multidrop Combi reagent dispenser (5840330, Thermo Fisher Scientific). The plates were then read kinetically using an absorbance protocol on a CLARIOStar microplate reader at 595 nm for 60 min. […] Dose response plates were conducted identically and the % inhibition values at each dose were used to draw EC50 curves to estimate the EC50 value of each compound tested. All coagulation experiments were repeated independently a minimum of three times.

[2] = test system: procoagulant activity of B. jararaca venom; conditions: read-out: Coagulation assay EC50 B. jararaca; 100 ng B. jararaca venom, citrated bovine plasma; mean of n ≥ 3, range in brackets
Description: as §1

[3] = test system: E. romani P–I and P–III SVMPs; conditions: drug 2 μM, gel
Description: (§2) Evaluation of SVMP toxin activity of human prothrombin and fibrinogen and inhibition by test compounds was performed by SDS-PAGE degradation gel electrophoresis using venom-purified toxins. P–I, P–II and P–III SVMPs were isolated using an adaptation of the method of Howes et al. Whole E. romani venom (15 mg) was initially separated using size exclusion chromatography (SEC) on a 120 mL column of Superdex 75 (Cytiva). The P–II SVMP (22 kDa) was pure and ready to use at this stage. P–I and P–III SVMP containing peaks were separately applied to a 1 mL high resolution hydrophobic interaction chromatography (HIC) column (SOURCE 15PHE, Cytiva). […] The P–I eluted as two peaks of proteins with identical molecular weight (21 kDa) which were combined back together. The P–III-containing fraction from SEC eluted from HIC as multiple peaks of P–III SVMP isoforms, well separated from the earlier eluting L-amino acid oxidase and high molecular weight C-type lectin-like proteins. The proteins in the PIII-containing peaks were pooled back together.
Prothrombin degradation was measured by incubating 2 μg of human prothrombin (Hematologic Technologies INC) in the presence or absence of drug and the P–I, P–II, and P–III SVMPs. […] Briefly, drug or DMSO and 200 ng of purified SVMP isoform were incubated for 30 min at 37 °C in a water bath, after which 2 μg of human prothrombin were added and the samples incubated for another hour at 37 °C. Drug concentrations used were 2 μM for P–I and P–III SVMPs. Samples were then processed for loading onto a 4–20% SDS-PAGE gel (Biorad) and were run under reducing conditions for 45 min at 180 V. The gels were stained with Coomassie Brilliant Blue R250 and degradation profiles were visualized and images captured using a GelDoc (Biorad).

[4] = test system: procoagulant activity of E. romani venom; conditions: read-out: Coagulation assay EC50 E. romani; 10 ng E. romani venom, citrated bovine plasma; mean of n ≥ 3, range in brackets
Description: as §1

[5] = test system: E. romani P–I, P–II and P–III SVMPs; conditions: gel; for protection against degradation of fibrinogen: P–I, P–II, P–III SVMPs, drug 10 μM (P–I, P–II), 400 nM (P–III)
Description: as §2
Degradation of human fibrinogen was measured in a similar manner. Human fibrinogen (Merck) was added at 5 μg/reaction and incubated with the different SVMP isoforms in the presence or absence of drugs. Drug concentrations used were 10 μM for P–I and P–II SVMP and 400 nM for P–III SVMP. The reactions consisted of 200 ng SVMP isoform and the appropriate concentration of drug, which were then incubated for 30 min at 37 °C in a water bath. Five micrograms of fibrinogen were then added and the samples incubated for another hour at 37 °C, before separation by SDS-PAGE as described above.

[6] = test system: SVMP activity of Bitis arietans venom; conditions: read-out: Inhibition of SVMP enzymatic activity EC50 BAR; B. arietans venom; mean of n ≥ 3, range in brackets
Description: (§3) Throughout our medicinal chemistry campaign, compounds were evaluated for their ability to inhibit enzymatic SVMP toxin activity in vitro using a previously described fluorescent-based substrate cleavage assay against five medically important viper venoms, namely Echis romani (Roman’s carpet viper, West Africa), Crotalus atrox (Western diamondback rattlesnake, North America), Calloselasma rhodostoma (Malayan pit viper, South East Asia), Bothrops jararaca (jararaca, South America) and Bitis arietans (puff adder, Africa).
(§4) Compounds of interest were stamped onto 384-well plates at a volume of 0.91 μL at a concentration of 1 mM in 100% DMSO (D2650, Sigma-Aldrich). Positive and negative control wells were stamped with 0.91 μL of 100% DMSO. To the test wells and the venom-only positive control wells, 15 μL of venom diluted to 0.066 μg/mL in PBS was added, giving a final amount of 1 μg/well. In the no venom negative control wells, 15 μL of PBS was added. The plates were then sealed, span briefly in a Platefuge (C2000, Benchmark Scientific) and incubated at 37 °C for 25 min to allow venom-inhibitor interaction. […] Dose response plates were conducted identically and the % inhibition values at each dose were used to draw EC50 curves to estimate the EC50 value of each compound tested. All SVMP experiments were repeated independently a minimum of three times.

physchem [7] = conditions: organic solvent / aqueous solvent at pH 7.4, pH 7.4
Description: (§5) The DMPK properties data described in the manuscript were measured via a high-throughput platform by AstraZeneca (United Kingdom).

in vitro [8] = conditions: rat, hepatocytes
Description: as §5

[9] = test system: E. romani venom in human whole blood; conditions: venom 60 ng plus drug 5 μM
Description: We measured the coagulation profile of whole human blood using thromboelastography, and compared with venom stimulated, and venom and drug stimulated, clotting profiles. […] Blood samples were collected in ACD-A blood tubes. Using a ROTEM delta (Werfen) a final volume of 300 μL blood per reaction was pipetted into prewarmed cups (37 °C), with four channels per run. Whole blood was warmed for 5 min at 37 °C, during which time 12 μL of E. romani venom (5 ng/nL concentration, 60 ng dose), 15 μL of DMSO vehicle or test compounds (5 μM final concentration, 0.2% DMSO), and 20 μL of Startem reagent (CaCl2, Werfen) was prepared. The maximum incubation time of venom and inhibitors was 2 min, before 253 μL of whole blood were added and mixed before reading on the ROTEM delta. The commonly used parameters of clotting time and maximum clot firmness (MCF) were reported, from a minimum of three independent measurements per experimental group.

[10] = test system: SVMP activity of Bothrops jararaca venom; conditions: read-out: Inhibition of SVMP enzymatic activity EC50 BJA; B. jararaca venom; mean of n ≥ 3, range in brackets
Description: as §3, §4

[11] = test system: SVMP activity of Calloselasma rhodostoma venom; conditions: read-out: Inhibition of SVMP enzymatic activity EC50 CRH; C. rhodostoma venom; mean of n ≥ 3, range in brackets
Description: as §3, §4

[12] = test system: SVMP activity of Echis romani venom; conditions: read-out: Inhibition of SVMP enzymatic activity EC50 ERO; E. romani venom; mean of n ≥ 3, range in brackets
Description: as §3, §4

physchem [13] = conditions: aqueous medium at pH 7.4, pH 7.4, aqueous buffer
Description: as §5

E. romani venom = conditions: venom 10 μg/egg, drug 1 μg/egg; 1 h postvenom images; in words
Description: Fertile hens eggs were supplied on day 1 post fertilization from UK supplier MedEggs Ltd. Eggs were immediately placed horizontally to incubate at 37 °C until day 5 of development. Candling was conducted to mark the position of the embryo to guide windowing. Any infertile eggs were removed at this stage. To access the embryos, all fertile eggs were then windowed under laminar flow. In brief, 6–8 mL of albumin was removed using a 23G needle. The area marking the position of the embryo was then covered with medical tape, and a dish of shell removed using sharp dissection scissors. The exposed embryo was then covered using parafilm and the egg returned to the incubator overnight. Surviving embryos were then randomly allocated into groups of n = 5. […] Treatments were given in a total volume of 10 μL, administered directly onto (i.e., topically) the vitelline vein. Embryos were returned to the incubator immediately following dosing, and then observed at 1, 2, 4, and 6 h. Survival was monitored via the observation of a heartbeat. Venom pathology was captured using a Motic SMZ 171-TLED microscope system. In brief, at each observation time point (1, 2, 4, and 6 h post envenoming) images were captured using a Moticam X5 Wi-Fi camera. To track changes across the experimental time course, the imaging position was kept consistent at each time point for individual embryos.

[14] = test system: SVMP activity of Crotalus atrox venom; conditions: read-out: Inhibition of SVMP enzymatic activity EC50 CAT; C. atrox venom; mean of n ≥ 3, range in brackets
Description: as §3, §4

in vitro [15] = conditions: human, microsomes
Description: as §5

Description for human plasma protein: as §5

Structure (SMILES)	inhibition of procoagulant venom activity [1]	EC50 [2]	protection against prothrombin degradation [3]	EC50 [4]	protection against degradation of fibrinogen [5]	EC50 [6]	logD (physchem [7])	Human Protein binding (%free) (human plasma protein)	hepatocyte CLint (in vitro [8])	reduction of venom-induced MCF [9]	effect on clotting time ([9]; in words)	EC50 [10]	EC50 [11]	EC50 [12]	solubility (physchem [13])	venom-induced hemorrhage in embryos (E. romani venom)	protection against fibrinogen degradation by P–II SVMP ([5]; P–II SVMP, drug 10 μM)	EC50 [14]	microsomal CLint (in vitro [15])
CC1(C)SCCN(S(=O)(=O)c2ccc(Oc3ccncc3)cc2)[C@H]1C(=O)NO [Prinomastat, prinomastat, reference compound]	demonstrated inhibition of procoagulant activity	972 nM	almost full protection	558 nM	protected against the degradation of fibrinogen														
COCCOC(=O)N1CCN(S(=O)(=O)c2cc(F)c(Oc3ccc(Cl)cc3)c(F)c2)[C@@H](C(=O)NO)C1 [XL-784, reference compound]	inactive	> 10000 nM	unable to protect against prothrombin degradation	> 10000 nM	protected against the degradation of fibrinogen	12.9 nM	3.2	0.3 %free	67.3 µL/min/1e6 cells	28.9%	no effect on clotting time	64.4 nM	93.4 nM	9.7 nM	316 µM (≈ 174 µg/mL)	no evidence of hemorrhage	inferior against P–II SVMP activity	50.6 nM	100 µL/min/mg
COCCN1CCN(S(=O)(=O)c2ccc(Oc3ccc(Cl)cc3)cc2)[C@@H](C(=O)NO)C1 [compound 15, (R)-1-((4-(4-Chlorophenoxy)phenyl)sulfonyl)-N-hydroxy-4-(2-methoxyethyl)piperazine-2-carboxamide]						19.9 nM	2.4	2.3 %free	> 300 µL/min/1e6 cells			232 nM	22.5 nM	7.9 nM	431 µM (≈ 203 µg/mL)			47.9 nM	< 3 µL/min/mg
COCCN1CCN(S(=O)(=O)c2ccc(Oc3ccc(OC(F)(F)F)cc3)cc2)[C@@H](C(=O)NO)C1 [compound 16, (R)-N-Hydroxy-4-(2-methoxyethyl)-1-((4-(4-(trifluoromethoxy)phenoxy)phenyl)sulfonyl)piperazine-2-carboxamide]						27.8 nM	2.9	3.0 %free	65.6 µL/min/1e6 cells			856 nM	79.3 nM	15.9 nM	437 µM (≈ 227 µg/mL)			76.9 nM	8 µL/min/mg
COCCN1CCN(S(=O)(=O)c2ccc(Oc3ccc(OC)cc3)cc2)[C@@H](C(=O)NO)C1 [compound 17, (R)-N-Hydroxy-4-(2-methoxyethyl)-1-((4-(4-methoxyphenoxy)phenyl)sulfonyl)piperazine-2-carboxamide]						10.4 nM	1.9	6.4 %free	209 µL/min/1e6 cells			209 nM	11.9 nM	1.1 nM	236 µM (≈ 110 µg/mL)			31.1 nM	> 300 µL/min/mg
COc1ccc(S(=O)(=O)N2CCNC[C@@H]2C(=O)NO)cc1.Cl [compound 18, (R)-N-Hydroxy-1-((4-methoxyphenyl)sulfonyl)piperazine-2-carboxamide hydrochloride salt]						24.7 nM	-0.2	91 %free	6.3 µL/min/1e6 cells			56.1 nM	83.3 nM	47.6 nM	231 µM			69.3 nM	< 3 µL/min/mg
